From patent US20260028338A1, “HETEROBIFUNCTIONAL COMPOUNDS AND METHODS OF TREATING DISEASE” (Halda Therapeutics OpCo, Inc., priority 2023, published 2026)

How the values were obtained:
[1] = molecular target: T1, biotinylated BCL6 (5-129) (Homo sapiens, UniProt P41182); assay: SPR assay for binding affinity to BCL6; details: Biacore 8K, 25° C., immobilized biotinylated BCL6 (5-129)
T1 construct: biotinylated BCL6 (5-129) was diluted in 10 mM HEPES pH 7.4; biotin (biotinylated)
Method: Exemplary compounds were tested for ability to bind to B-cell lymphoma 6 (BCL6) protein.
Binding studies by surface plasmon resonance (SPR) were performed using a Biacore 8K (Cytiva) instrument at 25° C. Briefly, biotinylated BCL6 (5-129) was diluted in 10 mM HEPES pH 7.4, 150 mM NaCl, 0.05% Surfactant P20, 0.5 mM TCEP, 3% DMSO to 1-5 μg/mL and was immobilized on an SA sensor chip (Cytiva, BR100032), resulting in surface densities at 1000-3000 resonance units (RUs). Test compounds were serially diluted five times in the same buffer and were injected to the immobilized surface. Kinetic determination experiments were performed using single-cycle kinetics with 110-120 s contact time, 1000-4000 s dissociation time, 30 μL/min flow rate. Binding data were analyzed by using Biacore insight evaluation software to determine KD values for test compounds.

[2] = molecular target: T2, His-tagged BRD4 BD1 (46-168) (Homo sapiens, UniProt O60885); assay: AlphaLISA competition assay, BRD4 BD1; type: binding; details: BRD4-BD1, AlphaLISA competition with biotinylated histone H4K5/8/12/16(Ac) peptide, 10 nM
T2 construct: His-tagged BRD4 BD1 (46-168) and biotinylated histone H4K5/8/12/16(Ac) peptide
Procedure, shortened: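 His-tagged BRD4 BD1 (46-168) and biotinylated H4K5/8/12/16(Ac) peptide, each 10 nM final, in 20 mM HEPES pH 7.5, 100 mM NaCl, 0.5 mM TCEP, 0.1% BSA, 0.02% CHAPS; compounds incubated 1 h at room temperature. Streptavidin acceptor and Ni-chelate donor beads added; IC50 from AlphaLISA signal.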

[3] = molecular target: T3, His-tagged BRD4 BD2 (333-460) (Homo sapiens, UniProt O60885); assay: AlphaLISA competition assay, BRD4 BD2; type: binding; details: BRD4-BD2, AlphaLISA competition with biotinylated histone H4K5/8/12/16(Ac) peptide, 20 nM
T3 construct: The same assay was developed for His-tagged BRD4 BD2 (333-460) and biotinylated histone H4K5/8/12/16(Ac) peptide
Procedure, shortened: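 His-tagged BRD4 BD2 (333-460) and biotinylated H4K5/8/12/16(Ac) peptide at 20 nM final, in 20 mM HEPES pH 7.5, 100 mM NaCl, 0.5 mM TCEP, 0.1% BSA, 0.02% CHAPS. Compounds incubated 1 h at room temperature, then streptavidin acceptor and nickel chelate donor beads added. IC50 derived from AlphaLISA signal.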

[4] = system: T-Rex 293 cell line SC cells having increased expression of BCL6 protein; assay: Cellular growth inhibition assay, T-Rex 293 SC cells with doxycycline (CellTiter-Glo); type: cell-based; details: T-Rex 293 SC cells with 10 ng/mL doxycycline (increased BCL6 expression), 72 hours, CellTiter-Glo 2.0
[5] = system: T-Rex 293 cell line SC cells lacking increased expression of BCL6 protein; assay: Cellular growth inhibition assay, T-Rex 293 SC cells without doxycycline (CellTiter-Glo); type: cell-based; details: T-Rex 293 SC cells not exposed to doxycycline (no increased BCL6 expression), 72 hours, CellTiter-Glo 2.0
Su-DHL-4 cell line = assay: Cellular growth inhibition assay, Su-DHL-4 cells (CellTiter-Glo); type: cell-based; details: Homo sapiens; Su-DHL-4 cell line (DLBCL), 72 hours, CellTiter-Glo 2.0
Method: Exemplary compounds were tested for ability to inhibit the proliferation of Su-DHL-4 and Farage cells. Su-DHL-4 and Farage cells are commercially available diffuse large B cell lymphoma cell lines (DLBCL).
Su-DHL-4 and Farage cells were purchased from American Type Cell Culture (ATCC Cat #CRL-2957/CRL-2630) and then seeded on poly-D-lysine coated, black clear-bottom 384-well plates at 3000/well in 25 μL Roswell Park Memorial Institute media (RPMI-1640) supplemented with 10% w/w Fetal bovine serum (FBS) and 1% w/w Pen-Strep. Pen-Strep is a commercially available mixture of penicillin G and streptomycin, which is used in mammalian cell culture media to prevent bacterial contamination. Roswell Park Memorial Institute media (RPMI-1640) supplemented with 10% w/w fetal bovine serum (FBS), and 1% w/w Pen-Strep is herein referred to as Treatment Medium. Following seeding of cells in the plates, the plates were spun at 300×g for 30 seconds, then equilibrated to room temperature for 30 minutes, and then deposited in a humidified tissue culture incubator maintained at 37° C. with 5% CO2.
At 24 hours after seeding of the cells, dilutions of test compound were prepared in DMSO and dissolved in Treatment Medium, to achieve a final DMSO concentration of 0.5% w/w, thereby providing the Test Compound Solution. A 25 μL aliquot of the Test Compound Solution was added to cells in the well plates. An equal volume of a solution containing DMSO and Treatment Medium was used as a negative control. Following treatment of cells with Test Compound Solution or said equal volume of a solution containing DMSO and Treatment Medium, the plates were spun at 300×g for 30 seconds, and then left in an incubator for 72 hours.
At the end of the treatment duration, cell viability was quantified with CellTiter-Glo 2.0 reagent (Promega Cat #G9243). For this purpose, plates were equilibrated to room temperature for 30 minutes, and then 25 μL of CellTiter-Glo 2.0 reagent was added to cells in the plate wells. Plates were then agitated on a shaker for two minutes at 500 rpm and subsequently incubated at room temperature for 10 minutes. Following incubation, the plates were spun at 3000×g for 30 seconds, then sealed with an optical adhesive cover, and luminescence readings were measured with an EnVision Plate Reader (Perkin Elmer).
Data was normalized using zero luminescence for baseline. A four-parameter non-linear regression curve fit was applied to dose-response data in GraphPad Prism data analysis software to determine the half-maximal growth inhibitory concentration (GI50) for each test compound.

Farage cell line = assay: Cellular growth inhibition assay, Farage cells (CellTiter-Glo); type: cell-based; details: Farage cell line (DLBCL), 72 hours, CellTiter-Glo 2.0
Procedure, shortened: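 DLBCL lines Su-DHL-4 and Farage were seeded at 3000 cells/well in RPMI-1640 with 10% FBS. Compound dilutions (final DMSO 0.5%) were added 24 h later and incubated 72 h at 37C. Viability was read by CellTiter-Glo 2.0 luminescence, and GI50 came from four-parameter fits.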

Kd [1] | IC50 [2] | IC50 [3] | GI50 (Su-DHL-4 cell line) | SMILES | GI50 [4] | GI50 [5] | GI50 (Farage cell line)
0.001 to 0.01 µM | 0.05 to 0.5 µM | < 0.005 µM | < 0.5 µM | CNC(=O)COc1cc2cc(Nc3nc(N4CCC(CCN5CCN(CCOc6cccc(Oc7ccc(C(C)(C)O)cc7-c7cn(C)c(=O)c8[nH]ccc78)c6)CC5)CC4)ncc3Cl)ccc2n(C)c1=O [Compound I-24] | < 0.5 µM | < 0.5 µM | < 0.5 µM
> 0.1 µM | 0.005 to 0.05 µM | < 0.005 µM | < 0.5 µM | CNC(=O)COc1cc2cc(Nc3nc(N4CCC5(CC4)CC(Oc4ccc(C6=N[C@@H](Cc7ncco7)c7nnc(C)n7-c7sc(C)c(C)c76)cc4)C5)ncc3Cl)ccc2n(C)c1=O [Compound I-25, 2-[[6-[[5-chloro-2-[2-[4-[(9S)-4,5,13-trimethyl-9-(oxazol-2-ylmethyl)-3-thia-1,8,11,12-tetrazatricyclo[8.3.0.02,6]trideca-2 (6),4,7,10,12-pentaen-7-yl]phenoxy]-7-azaspiro[3.5]nonan-7-yl]pyrimidin-4-yl]amino]-1-methyl-2-oxo-3-quinolyl]oxy]-N-methyl-acetamide] | < 0.5 µM | < 0.5 µM | < 0.5 µM
> 0.1 µM | 0.005 to 0.05 µM | < 0.005 µM | < 0.5 µM | CNC(=O)COc1cc2cc(Nc3nc(N4CCCC5(CC(Oc6ccc(C7=N[C@@H](Cc8ncco8)c8nnc(C)n8-c8sc(C)c(C)c87)cc6)C5)C4)ncc3Cl)ccc2n(C)c1=O (stereo partly drawn) [Compound I-27] | < 0.5 µM | < 0.5 µM | < 0.5 µM
